Reference: patent publication US12215173B2, “Kappa opioid receptor peptide amide ligands” (priority 2019, dated 2025)
Like-named read-outs stand apart in the source and are kept apart here. Square brackets hold non-standard residues; d marks the D form. Peptide text beside a SMILES is read from it. * marks the point of attachment. Piperidin1yl(4-NH2,4-CO2Me) = COC(=O)C1(N)CCN(*)CC1; Pyrrolidinyl(3-NH2,3-CO2Me) = COC(=O)C1(N)CCN(*)C1; Pyrrolidino(3-NH2-3-COOH) = NC1(C(=O)O)CCN(*)C1; dAla(cPr) = N[C@H](CC1CC1)C(=O)O; dTic = O=C(O)[C@H]1Cc2ccccc2CN1

What was measured:
[1] = target: recombinant human kappa (KOR) opioid receptor (Homo sapiens (Human), UniProt P41145); assay: biochemical; type: binding
[2] = target: recombinant human mu (MOR) opioid receptor (Homo sapiens (Human), UniProt P35372); assay: Opioid receptor radioligand binding assay, MOR
[3] = target: recombinant human delta (DOR) opioid receptor (Homo sapiens (Human), UniProt P41143); assay: Opioid receptor radioligand binding assay, DOR
[4] = target: Opioid Kappa Receptor (recombinant human, HEK293 cells) (Homo sapiens (Human), UniProt P41145); assay: cell-based
[5] = HEK293 cell membranes, 0.5 nM [3H]diprenorphine
[6] = HEK293 cell membranes, 0.5 nM [3H]DAMGO, read-out: MOR, IC50
[7] = HEK293 cell membranes, 0.5 nM [3H]DADLE, read-out: DOR, IC50

recombinant human delta (DOR) opioid receptor, sequence (P41143 whole entry, looked up): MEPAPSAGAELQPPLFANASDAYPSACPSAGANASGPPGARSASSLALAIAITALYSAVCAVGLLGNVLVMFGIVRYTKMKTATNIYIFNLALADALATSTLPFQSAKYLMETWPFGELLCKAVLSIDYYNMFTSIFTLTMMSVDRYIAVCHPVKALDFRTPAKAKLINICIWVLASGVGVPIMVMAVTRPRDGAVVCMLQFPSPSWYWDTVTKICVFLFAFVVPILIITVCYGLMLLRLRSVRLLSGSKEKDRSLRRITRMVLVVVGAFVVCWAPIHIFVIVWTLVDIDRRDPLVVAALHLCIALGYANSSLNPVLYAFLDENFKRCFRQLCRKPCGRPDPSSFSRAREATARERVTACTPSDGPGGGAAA

SMILES	IC50 [1, 5]	IC50 [2]	IC50 [3]	EC50 ([4]; read-out: EC50)	IC50 [2, 6]	IC50 [3, 7]	IC50 [1]	EC50 [4]
CNC(=O)NC1CCN(C(=O)[C@@H](CCCCN)NC(=O)[C@@H](CC(C)C)NC(=O)[C@@H](Cc2ccccc2)NC(=O)[C@H](N)Cc2ccccc2)CC1 [Compound 13-60]	0.42 nM	> 10000 nM	> 10000 nM	14.3 nM	–	–	–	–
CCOC(=O)C(N)C(=O)NC1CCN(C(=O)[C@@H](CCCCN)NC(=O)[C@@H](CC(C)C)NC(=O)[C@@H](Cc2ccccc2)NC(=O)[C@H](N)Cc2ccccc2)CC1 (stereo partly shown) [Compound 13-39]	0.23 nM	–	–	14.7 nM	> 10000 nM	> 10000 nM	–	–
CC(C)C[C@@H](NC(=O)[C@@H](Cc1ccccc1)NC(=O)[C@H](N)Cc1ccccc1)C(=O)N[C@H](CCCCN)C(=O)N1CCN(C(=O)C(=O)N(C)C)CC1 [Compound 13-26]	1.83 nM	–	–	10.2 nM	> 10000 nM	> 10000 nM	–	–
CC(C)C[C@@H](NC(=O)[C@@H](Cc1ccccc1)NC(=O)[C@H](N)Cc1ccccc1)C(=O)N[C@H](CCCCN)C(=O)N1CCC(NC(=O)C(N)C(=O)O)CC1 (stereo partly shown) [Compound 13-40]	0.3 nM	–	–	7.48 nM	6390 nM	> 10000 nM	–	–
CNCCOC(=O)C1(N)CCN(C(=O)[C@@H](CCCCN)NC(=O)[C@@H](CC(C)C)NC(=O)[C@@H](Cc2ccccc2)NC(=O)[C@H](N)Cc2ccccc2)C1 (stereo partly shown) [Compound 60]	0.94 nM	–	–	7.19 nM	> 10000 nM	> 10000 nM	–	–
CC(C)C[C@@H](NC(=O)[C@@H](Cc1ccccc1)NC(=O)[C@H](N)Cc1ccccc1)C(=O)N[C@H](CCCCN)C(=O)NCc1cccc(C(=O)O)n1 [Compound 13-6]	–	–	–	30.5 nM	–	–	–	–
CCOC(=O)N1CCN(C(=O)[C@@H](CCCCN)NC(=O)[C@@H](CC(C)C)NC(=O)[C@@H](Cc2ccccc2)NC(=O)[C@H](N)Cc2ccccc2)CC1 [Compound 13-47]	–	–	–	–	> 10000 nM	> 10000 nM	0.27 nM	4.84 nM
COCCOCCNC(=O)[C@@H](CCCCN)NC(=O)[C@@H](CC(C)C)NC(=O)[C@@H](Cc1ccccc1)NC(=O)[C@H](N)Cc1ccccc1 [Compound 13-4]	2.8 nM	–	–	13.5 nM	> 10000 nM	> 10000 nM	–	–
CC(C)C[C@@H](NC(=O)[C@@H](Cc1ccccc1)NC(=O)[C@H](N)Cc1ccccc1)C(=O)N[C@H](CCCCN)C(=O)N1CCC(NC(=O)C(=O)O)CC1 [Compound 13-30]	0.15 nM	–	–	4.77 nM	> 10000 nM	> 10000 nM	–	–
CC(C)C[C@@H](NC(=O)[C@@H](Cc1ccccc1)NC(=O)[C@H](N)Cc1ccccc1)C(=O)N[C@H](CCCCN)C(=O)N1CCC(N)(C(=O)OC2CC2)C1 (stereo partly shown) [Compound 40]	0.41 nM	> 10000 nM	> 1000 nM	11.9 nM	–	–	–	–
COC(=O)C1(N)CCN(C(=O)[C@@H](CCCCN)NC(=O)[C@@H](CC(C)C)NC(=O)[C@@H](Cc2ccccc2)NC(=O)[C@H](N)Cc2ccccc2)C1 (stereo partly shown) [Compound 13-62]	0.2 nM	> 10000 nM	> 10000 nM	2.96 nM	–	–	–	–
CC(C)C[C@@H](NC(=O)[C@@H](Cc1ccccc1)NC(=O)[C@H](N)Cc1ccccc1)C(=O)N[C@H](CCCCN)C(=O)NCc1ccnc(C(=O)O)c1 [Compound 13-8]	6.04 nM	–	–	14.7 nM	> 10000 nM	> 10000 nM	–	–
CC(C)C[C@@H](NC(=O)[C@@H](Cc1ccccc1)NC(=O)[C@H](N)Cc1ccccc1)C(=O)N[C@H](CCCCN)C(=O)N1CCC(NC(=O)C(=O)N(C)C)CC1 [Compound 13-16]	0.37 nM	–	–	19.4 nM	215 nM	2410 nM	–	–
CC(C)C[C@@H](NC(=O)[C@@H](Cc1ccccc1)NC(=O)[C@H](N)Cc1ccccc1)C(=O)N[C@H](CCCCN)C(=O)NC[C@H](N)C(=O)O [Compound 13-13]	16.1 nM	–	–	88.4 nM	> 10000 nM	> 10000 nM	–	–
CC(C)C[C@@H](NC(=O)[C@@H](Cc1ccccc1)NC(=O)[C@H](N)Cc1ccccc1)C(=O)N[C@H](CCCCN)C(=O)N1CCN(C(=O)N(C)C)CC1 [Compound 13-59]	0.36 nM	–	–	14.3 nM	> 10000 nM	> 10000 nM	–	–
CC(C)C[C@@H](NC(=O)[C@@H](Cc1ccccc1)NC(=O)[C@H](N)Cc1ccccc1)C(=O)N[C@H](CCCCN)C(=O)NCc1ccncc1 [Compound 13-53]	2.01 nM	8750 nM	> 10000 nM	12.6 nM	–	–	–	–
COC(=O)C1(N)CCN(C(=O)[C@@H](CCCCN)NC(=O)[C@@H](CC2CC2)NC(=O)[C@@H](Cc2ccccc2)NC(=O)[C@H](N)Cc2ccccc2)CC1 [Compound 112] (H-[dF][dF][dAla(cPr)][dK]-{Piperidin1yl(4-NH2,4-CO2Me)})	1 nM	–	–	5.95 nM	15.2 nM	> 10000 nM	–	–
CC(=O)N[C@@H](CCC(N)=O)C(=O)NC1CCN(C(=O)[C@@H](CCCCN)NC(=O)[C@@H](CC(C)C)NC(=O)[C@@H](Cc2ccccc2)NC(=O)[C@H](N)Cc2ccccc2)CC1 [Compound 13-56]	0.35 nM	> 10000 nM	> 10000 nM	16.7 nM	–	–	–	–

SMILES	IC50 [1, 5]	IC50 [2]	IC50 [3]	EC50 ([4]; read-out: EC50)	IC50 [2, 6]	IC50 [3, 7]	IC50 [1]	EC50 [4]
CCNC(=O)C(=O)N1CCC(NC(=O)[C@@H](CCCCN)NC(=O)[C@@H](CC(C)C)NC(=O)[C@@H](Cc2ccccc2)NC(=O)[C@H](N)Cc2ccccc2)CC1 [Compound 13-36]	0.49 nM	–	–	37.7 nM	> 10000 nM	> 10000 nM	–	–
COC(=O)/C=C/C(=O)N1CCC(NC(=O)[C@@H](CCCCN)NC(=O)[C@@H](CC(C)C)NC(=O)[C@@H](Cc2ccccc2)NC(=O)[C@H](N)Cc2ccccc2)CC1 [Compound 13-18]	2 nM	–	–	39.3 nM	> 10000 nM	> 10000 nM	–	–
CC(C)C[C@@H](NC(=O)[C@@H](Cc1ccccc1)NC(=O)[C@H](N)Cc1ccccc1)C(=O)N[C@H](CCCCN)C(=O)N1CCC(N)(C(=O)OCCN)C1 (stereo partly shown) [Compound 55]	0.45 nM	–	–	9.36 nM	8530 nM	> 10000 nM	–	–
CC(C)C[C@@H](NC(=O)[C@@H](Cc1ccccc1)NC(=O)[C@H](N)Cc1ccccc1)C(=O)N[C@H](CCCCN)C(=O)N1CCC(NC(=O)/C=C\C(=O)NC(N)=O)CC1 [Compound 13-54]	0.21 nM	1530 nM	> 10000 nM	15.1 nM	–	–	–	–
CC(C)C[C@@H](NC(=O)[C@@H](Cc1ccccc1)NC(=O)[C@H](N)Cc1ccccc1)C(=O)N[C@H](CCCCN)C(=O)NC1CCN(C(=O)C(N)=O)CC1 [Compound 13-34]	3.33 nM	–	–	20.2 nM	2980 nM	> 10000 nM	–	–
CC(C)C[C@@H](NC(=O)[C@@H](Cc1ccccc1)NC(=O)[C@H](N)Cc1ccccc1)C(=O)N[C@H](CCCCN)C(=O)N1CCC(NC(=O)CNC(N)=O)CC1 [Compound 13-55]	0.35 nM	> 10000 nM	> 10000 nM	20.4 nM	–	–	–	–
CCNC(=O)C(=O)N1CCN(C(=O)[C@@H](CCCCN)NC(=O)[C@@H](CC(C)C)NC(=O)[C@@H](Cc2ccccc2)NC(=O)[C@H](N)Cc2ccccc2)CC1 [Compound 13-43]	0.33 nM	–	–	8.7 nM	> 10000 nM	> 10000 nM	–	–
COC(=O)C1(N)CCN(C(=O)[C@@H](CCCCN)NC(=O)[C@@H](CC(C)C)NC(=O)[C@@H](Cc2ccccc2)NC(=O)[C@H](N)Cc2ccc(F)cc2)C1 (stereo partly shown) [Compound 181]	–	–	–	8.7 nM	–	–	–	–
COC(=O)C1(N)CCN(C(=O)[C@@H](CCCCN)NC(=O)[C@@H](CC(C)C)NC(=O)[C@@H](Cc2ccccc2)NC(=O)[C@H](N)Cc2ccc(F)cc2)CC1 [Compound 184]	–	–	–	6.26 nM	–	–	–	–
CC(C)C[C@@H](NC(=O)[C@@H](Cc1ccccc1)NC(=O)[C@H]1Cc2ccccc2CN1)C(=O)N[C@H](CCCCN)C(=O)N1CCC(N)(C(=O)O)C1 (stereo partly drawn) [Compound 169] (H-[dTic][dF][dL][dK]-{Pyrrolidino(3-NH2-3-COOH)})	–	–	–	167 nM	–	–	–	–
CC(C)C[C@@H](NC(=O)[C@@H](Cc1ccccc1)NC(=O)[C@H](N)Cc1ccccc1)C(=O)N[C@H](CCCCN)C(=O)NCCC[C@H](N)C(=O)O [Compound 13-44]	–	–	–	4.75 nM	–	–	–	–
COCCN(CCOC)C(=O)[C@@H](CCCCN)NC(=O)[C@@H](CC(C)C)NC(=O)[C@@H](Cc1ccccc1)NC(=O)[C@H](N)Cc1ccccc1 [Compound 13-3]	28.1 nM	–	–	–	> 10000 nM	> 10000 nM	–	–
NCCCC[C@@H](NC(=O)[C@@H](CC1CC1)NC(=O)[C@@H](Cc1ccccc1)NC(=O)[C@H](N)Cc1ccccc1)C(=O)N1CCC(N)(C(=O)O)C1 (stereo partly shown) [Compound 119] (H-[dF][dF][dAla(cPr)][dK]-{Pyrrolidino(3-NH2-3-COOH)})	2.36 nM	–	–	23.1 nM	–	–	–	–
N=C(N)NCCC[C@@H](NC(=O)[C@@H](CC1CC1)NC(=O)[C@@H](Cc1ccccc1)NC(=O)[C@H](N)Cc1ccccc1)C(=O)N1CCC(N)(C(=O)O)C1 (stereo partly shown) [Compound 134] (H-[dF][dF][dAla(cPr)][dR]-{Pyrrolidino(3-NH2-3-COOH)})	2.35 nM	–	–	12.6 nM	–	–	–	–
COC(=O)C1(N)CCN(C(=O)[C@@H](CCCCN)NC(=O)[C@@H](CC(C)C)NC(=O)[C@@H](Cc2ccccc2)NC(=O)[C@H]2Cc3ccccc3CN2)C1 (stereo partly drawn) [Compound 168] (H-[dTic][dF][dL][dK]-{Pyrrolidinyl(3-NH2,3-CO2Me)})	4.23 nM	2410 nM	> 10000 nM	–	–	–	–	–
CC(C)C[C@@H](NC(=O)[C@@H](Cc1ccccc1)NC(=O)[C@H](N)Cc1ccccc1)C(=O)N[C@H](CCCCN)C(=O)N1CCC(NC(=O)C(N)=O)CC1 [Compound 13-33]	0.54 nM	–	–	–	> 10000 nM	> 10000 nM	–	–
CC(C)C[C@@H](NC(=O)[C@@H](Cc1ccccc1)NC(=O)[C@H](N)Cc1ccccc1)C(=O)N[C@H](CCCCN)C(=O)N1CCC(O)(CO)CC1 [Compound 13-65]	–	–	–	1.68 nM	–	–	–	–
